Data from patent publication US6335373B1, “Process to produce stabilized carnosic acid in high concentration” (Lycored Natural Products Industries, Ltd., priority 2000, dated 2002).

Tests used:
stephilococus = details: against stephilococus and dental caries, reported; cited from earlier work
[1] = identified by Brieskorn and Domling in 1964; cited from earlier work
[2] = Stabilization of carnosic acid in 60% ethanol rosemary extract with added acids, kept in the dark; format: physicochemical
Description: To 4.0 litre of ethanol (60%) are added 500 gr. of dried and finely ground rosemary leaves, having a concentration of 4.3% carnosic acid. Extraction is done for 3 hours at room temperature. 3.22 litre of extract are obtained by vacuum filtration of the biomass. The concentrate is divided to 200 ml. portions where different acids at various concentrations are added to these portions. All portions are kept in the dark and the variations in the carnosic acid concentrations of the different portions are checked. […] Only under acidic conditions is the concentration of carnosic acid retained where the optimal acids are phosphoric and ascorbic acid.

[3] = Exposure of carnosic acid in an extract to room temperature and light; format: physicochemical; details: pH of the extract above 6

CC(C)c1cc2c(c(O)c1O)[C@@]1(C(=O)O)CCCC(C)(C)[C@@H]1CC2 [carnosic acid]
antibiotic action (stephilococus): antibiotic action | antioxidant activity [1]: very potent antioxidant | Concentration of Carnosic ([2]; Acetic 1%, +2 Hours): 4770 µg/mL | Concentration of Carnosic ([2]; Acetic 1%, +5 Hours): 4740 µg/mL | Concentration of Carnosic ([2]; Acetic 1%, +1 hour): 4760 µg/mL | Concentration of Carnosic ([2]; Acetic 1%, +24 hour): 4590 µg/mL | Concentration of Carnosic ([2]; Acetic 1%, +48 hours): 4260 µg/mL | Concentration of Carnosic ([2]; Acetic 1%, Time Zero): 4800 µg/mL | Concentration of Carnosic ([2]; Acetic 2%, +2 Hours): 4690 µg/mL | Concentration of Carnosic ([2]; Acetic 2%, +5 Hours): 4710 µg/mL | Concentration of Carnosic ([2]; Acetic 2%, +1 hour): 4790 µg/mL | Concentration of Carnosic ([2]; Acetic 2%, +24 hour): 4490 µg/mL | Concentration of Carnosic ([2]; Acetic 2%, +48 hours): 4230 µg/mL | Concentration of Carnosic ([2]; Acetic 2%, Time Zero): 4800 µg/mL | Concentration of Carnosic ([2]; Ascorbic 0.05%, +2 Hours): 4710 µg/mL | Concentration of Carnosic ([2]; Ascorbic 0.05%, +5 Hours): 4680 µg/mL | Concentration of Carnosic ([2]; Ascorbic 0.05%, +1 hour): 4750 µg/mL | Concentration of Carnosic ([2]; Ascorbic 0.05%, +24 hour): 4780 µg/mL | Concentration of Carnosic ([2]; Ascorbic 0.05%, +48 hours): 4790 µg/mL | Concentration of Carnosic ([2]; Ascorbic 0.05%, Time Zero): 4800 µg/mL | Concentration of Carnosic ([2]; Ascorbic 0.1%, +2 Hours): 4710 µg/mL | Concentration of Carnosic ([2]; Ascorbic 0.1%, +5 Hours): 4720 µg/mL | Concentration of Carnosic ([2]; Ascorbic 0.1%, +1 hour): 4740 µg/mL | Concentration of Carnosic ([2]; Ascorbic 0.1%, +24 hour): 4790 µg/mL | Concentration of Carnosic ([2]; Ascorbic 0.1%, +48 hours): 4790 µg/mL | Concentration of Carnosic ([2]; Ascorbic 0.1%, Time Zero): 4800 µg/mL | Concentration of Carnosic ([2]; Ascorbic 0.5%, +2 Hours): 4830 µg/mL | Concentration of Carnosic ([2]; Ascorbic 0.5%, +5 Hours): 4820 µg/mL | Concentration of Carnosic ([2]; Ascorbic 0.5%, +1 hour): 4860 µg/mL | Concentration of Carnosic ([2]; Ascorbic 0.5%, +24 hour): 4810 µg/mL | Concentration of Carnosic ([2]; Ascorbic 0.5%, +48 hours): 4820 µg/mL | Concentration of Carnosic ([2]; Ascorbic 0.5%, Time Zero): 4800 µg/mL | Concentration of Carnosic ([2]; Ascorbic 1%, +2 Hours): 4840 µg/mL | Concentration of Carnosic ([2]; Ascorbic 1%, +5 Hours): 4840 µg/mL | Concentration of Carnosic ([2]; Ascorbic 1%, +1 hour): 4830 µg/mL | Concentration of Carnosic ([2]; Ascorbic 1%, +24 hour): 4820 µg/mL | Concentration of Carnosic ([2]; Ascorbic 1%, +48 hours): 4800 µg/mL | Concentration of Carnosic ([2]; Ascorbic 1%, Time Zero): 4800 µg/mL | Concentration of Carnosic ([2]; Citric 0.1%, +2 Hours): 4560 µg/mL | Concentration of Carnosic ([2]; Citric 0.1%, +5 Hours): 4490 µg/mL | Concentration of Carnosic ([2]; Citric 0.1%, +1 hour): 4730 µg/mL | Concentration of Carnosic ([2]; Citric 0.1%, +24 hour): 4270 µg/mL | Concentration of Carnosic ([2]; Citric 0.1%, +48 hours): 4130 µg/mL | Concentration of Carnosic ([2]; Citric 0.1%, Time Zero): 4800 µg/mL | Concentration of Carnosic ([2]; Citric 0.5%, +2 Hours): 4580 µg/mL | Concentration of Carnosic ([2]; Citric 0.5%, +5 Hours): 4530 µg/mL | Concentration of Carnosic ([2]; Citric 0.5%, +1 hour): 4760 µg/mL | Concentration of Carnosic ([2]; Citric 0.5%, +24 hour): 4510 µg/mL | Concentration of Carnosic ([2]; Citric 0.5%, +48 hours): 4220 µg/mL | Concentration of Carnosic ([2]; Citric 0.5%, Time Zero): 4800 µg/mL | Concentration of Carnosic ([2]; Citric 1%, +2 Hours): 4530 µg/mL | Concentration of Carnosic ([2]; Citric 1%, +5 Hours): 4560 µg/mL | Concentration of Carnosic ([2]; Citric 1%, +1 hour): 4760 µg/mL | Concentration of Carnosic ([2]; Citric 1%, +24 hour): 4560 µg/mL | Concentration of Carnosic ([2]; Citric 1%, +48 hours): 4420 µg/mL | Concentration of Carnosic ([2]; Citric 1%, Time Zero): 4800 µg/mL | Concentration of Carnosic ([2]; Control, acid 0%, +2 Hours): 4420 µg/mL | Concentration of Carnosic ([2]; Control, acid 0%, +5 Hours): 4270 µg/mL | Concentration of Carnosic ([2]; Control, acid 0%, +1 hour): 4510 µg/mL | Concentration of Carnosic ([2]; Control, acid 0%, +24 hour): 3550 µg/mL | Concentration of Carnosic ([2]; Control, acid 0%, +48 hours): 2780 µg/mL | Concentration of Carnosic ([2]; Control, acid 0%, Time Zero): 4800 µg/mL | Concentration of Carnosic ([2]; HCI 0.1%, +2 Hours): 4680 µg/mL | Concentration of Carnosic ([2]; HCI 0.1%, +5 Hours): 4520 µg/mL | Concentration of Carnosic ([2]; HCI 0.1%, +1 hour): 4720 µg/mL | Concentration of Carnosic ([2]; HCI 0.1%, +24 hour): 3690 µg/mL | Concentration of Carnosic ([2]; HCI 0.1%, +48 hours): 2930 µg/mL | Concentration of Carnosic ([2]; HCI 0.1%, Time Zero): 4800 µg/mL | Concentration of Carnosic ([2]; HCI 1%, +2 Hours): 4720 µg/mL | Concentration of Carnosic ([2]; HCI 1%, +5 Hours): 4530 µg/mL | Concentration of Carnosic ([2]; HCI 1%, +1 hour): 4780 µg/mL | Concentration of Carnosic ([2]; HCI 1%, +24 hour): 4540 µg/mL | Concentration of Carnosic ([2]; HCI 1%, +48 hours): 4390 µg/mL | Concentration of Carnosic ([2]; HCI 1%, Time Zero): 4800 µg/mL | Concentration of Carnosic ([2]; HCI 2%, +2 Hours): 4700 µg/mL | Concentration of Carnosic ([2]; HCI 2%, +5 Hours): 4580 µg/mL | Concentration of Carnosic ([2]; HCI 2%, +1 hour): 4760 µg/mL | Concentration of Carnosic ([2]; HCI 2%, +24 hour): 4460 µg/mL | Concentration of Carnosic ([2]; HCI 2%, +48 hours): 4420 µg/mL | Concentration of Carnosic ([2]; HCI 2%, Time Zero): 4800 µg/mL | Concentration of Carnosic ([2]; Phosphoric 1%, +2 Hours): 4790 µg/mL | Concentration of Carnosic ([2]; Phosphoric 1%, +5 Hours): 4760 µg/mL | Concentration of Carnosic ([2]; Phosphoric 1%, +1 hour): 4820 µg/mL | Concentration of Carnosic ([2]; Phosphoric 1%, +24 hour): 4780 µg/mL | Concentration of Carnosic ([2]; Phosphoric 1%, +48 hours): 4790 µg/mL | Concentration of Carnosic ([2]; Phosphoric 1%, Time Zero): 4800 µg/mL | Concentration of Carnosic ([2]; Phosphoric 2%, +2 Hours): 4790 µg/mL | Concentration of Carnosic ([2]; Phosphoric 2%, +5 Hours): 4750 µg/mL | Concentration of Carnosic ([2]; Phosphoric 2%, +1 hour): 4770 µg/mL | Concentration of Carnosic ([2]; Phosphoric 2%, +24 hour): 4810 µg/mL | Concentration of Carnosic ([2]; Phosphoric 2%, +48 hours): 4780 µg/mL | Concentration of Carnosic ([2]; Phosphoric 2%, Time Zero): 4800 µg/mL | period for which carnosic acid is stable ([2]; in acidic polar solution containing water, lower alkyl alcohol and acid): more than 24 hours | decrease of carnosic acid ([2]; lack of acid): 50% | change in concentration of carnosic acid [3]: marked decrease
